Results: US9540323B2 (BRISTOL-MYERS SQUIBB COMPANY, priority 2012, dated 2017)

Columns and labels:
[1] = tested on: human platelet rich plasma (PRP); assay: ADP induced platelet aggregation assay; conditions: Homo sapiens, Platelet, 5 min, read-out: PA IC50 (μM) @ 10 μM ADP, human PRP, 10 μM ADP, AUC at 5 minute
Method: The ability of P2Y1 antagonists covered in the present invention to inhibit platelet aggregation induced by 10 μM ADP was tested using human platelet rich plasma (PRP) as described in Platelet Protocols: Research and Clinical Laboratory Procedures (White, M. M. et al., Academic Press (1999)). Human blood was collected in 30 μM (final concentration in blood) argatroban (GSK) as the anticoagulant at a ratio of 1 mL per 9 mL of blood. The PRP was isolated by centrifugation at 170 g for 12 minutes. The platelet poor plasma (PPP) was used as the blank for optical aggregometry. Compounds of the present invention in DMSO solution was preincubated with 250 μL PRP at 37° C. for 1 minute with stirring speed of 1000 rpm. Aggregation was initiated by addition of 2.5 μL of 1 mM ADP (Chrono-log, Havertown, Pa.) for a final ADP concentration of 10 μM. Platelet aggregation was monitored using Optical Aggregometer (Chrono-log, Havertown, Pa.) and the area under the curve (AUC) at 5 minute was measured. IC50 was calculated using vehicle control as 0% inhibition.

[2] = biological target: cloned human P2Y1 receptors (Homo sapiens (Human), UniProt P47900); assay: Binding Assay B - Scintillation Proximity Assay (SPA) for P2Y1 binding, [33P] 2MeS-ADP; conditions: SPA, 0.3 nM [33P] 2MeS-ADP, Cheng-Prusoff; read-out: P2Y1 Ki (nM) using binding assay B
Method: Binding Assay B—Scintillation Proximity Assay (SPA) for P2Y1 Binding
A SPA membrane binding assay was used to identify inhibitors of [^33P] […] Reactions were allowed to proceed to completion at room temperature for 1 hour followed by centrifugation of the plate for 5 min. About 40 μL of the aqueous solution was aspirated. Plates were sealed and the [^33P]

Sequence of cloned human P2Y1 receptors (P47900 whole entry): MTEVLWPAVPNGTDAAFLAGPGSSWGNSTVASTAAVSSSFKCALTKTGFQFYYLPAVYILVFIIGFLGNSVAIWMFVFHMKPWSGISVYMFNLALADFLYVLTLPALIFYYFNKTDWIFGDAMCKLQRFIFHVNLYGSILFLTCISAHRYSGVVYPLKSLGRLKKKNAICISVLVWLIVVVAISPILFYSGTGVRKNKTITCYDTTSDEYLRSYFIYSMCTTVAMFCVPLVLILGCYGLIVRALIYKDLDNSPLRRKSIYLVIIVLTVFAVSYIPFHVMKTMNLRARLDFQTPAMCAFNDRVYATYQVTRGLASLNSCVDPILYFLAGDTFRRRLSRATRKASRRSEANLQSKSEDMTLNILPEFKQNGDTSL

CC(C)Cn1cc(-c2c(F)cc(O)c3c2C(C)(C)CN3c2ccccc2NC(=O)Nc2ccc(OC(F)(F)F)cc2)cn1 [Example 184, 1-(2-(5-Fluoro-7-hydroxy-4-(1-isobutyl-1H-pyrazol-4-yl)-3,3-dimethylindolin-1-yl)phenyl)-3-(4-(trifluoromethoxy)phenyl)urea]
IC50 [1]: 0.26 µM | Ki [2]: 10.7 nM

CC(C)CCn1cc(-c2c(F)cc(O)c3c2C(C)(C)CN3c2ccccc2NC(=O)Nc2ccc(OC(F)(F)F)cc2)cn1 [Example 185, 1-(2-(5-Fluoro-7-hydroxy-4-(1-isopentyl-1H-pyrazol-4-yl)-3,3-dimethylindolin-1-yl)phenyl)-3-(4-(trifluoromethoxy)phenyl)urea]
IC50 [1]: 0.16 µM | Ki [2]: 13.3 nM

Cc1c(-c2c(F)cc(O)c3c2C(C)(C)CN3c2ccccc2NC(=O)Nc2ccc(OC(F)(F)F)cc2)cnn1-c1ccccc1 [Example 186, 1-(2-(5-Fluoro-7-hydroxy-3,3-dimethyl-4-(5-methyl-1-phenyl-1H-pyrazol-4-yl)indolin-1-yl)phenyl)-3-(4-(trifluoromethoxy)phenyl)urea]
IC50 [1]: 0.67 µM | Ki [2]: 17.6 nM

Cc1nn(C)c(C)c1-c1c(F)cc(O)c2c1C(C)(C)CN2c1ccccc1NC(=O)Nc1ccc(OC(F)(F)F)cc1 [Example 187, 1-(2-(5-Fluoro-7-hydroxy-3,3-dimethyl-4-(1,3,5-trimethyl-1H-pyrazol-4-yl)indolin-1-yl)phenyl)-3-(4-(trifluoromethoxy)phenyl)urea]
IC50 [1]: 1.07 µM | Ki [2]: 19.2 nM

CC1(C)CN(c2ccccc2NC(=O)Nc2ccc(OC(F)(F)F)cc2)c2c(O)cc(F)c(-c3ccc(F)nc3)c21 [Example 188, 1-(2-(5-Fluoro-4-(6-fluoropyridin-3-yl)-7-hydroxy-3,3-dimethylindolin-1-yl)phenyl)-3-(4-(trifluoromethoxy)phenyl)urea]
IC50 [1]: 0.38 µM | Ki [2]: 4.7 nM

CSc1ncc(-c2c(F)cc(O)c3c2C(C)(C)CN3c2ccccc2NC(=O)Nc2ccc(OC(F)(F)F)cc2)cn1 [Example 189, 1-(2-(5-Fluoro-7-hydroxy-3,3-dimethyl-4-(2-(methylthio)pyrimidin-5-yl)indolin-1-yl)phenyl)-3-(4-(trifluoromethoxy)phenyl)urea]
IC50 [1]: 0.25 µM | Ki [2]: 7.2 nM

CC1(C)CN(c2ccccc2NC(=O)Nc2ccc(OC(F)(F)F)cc2)c2c(O)cc(F)c(-c3ccnc(F)c3)c21 [Example 190, 1-(2-(5-Fluoro-4-(2-fluoropyridin-4-yl)-7-hydroxy-3,3-dimethylindolin-1-yl)phenyl)-3-(4-(trifluoromethoxy)phenyl)urea]
IC50 [1]: 0.48 µM | Ki [2]: 10.6 nM

Cc1cc(-c2c(F)cc(O)c3c2C(C)(C)CN3c2ccccc2NC(=O)Nc2ccc(OC(F)(F)F)cc2)ccn1 [Example 191, 1-(2-(5-Fluoro-7-hydroxy-3,3-dimethyl-4-(2-methylpyridin-4-yl)indolin-1-yl)phenyl)-3-(4-(trifluoromethoxy)phenyl)urea]
IC50 [1]: 0.19 µM | Ki [2]: 12.3 nM

Cc1cc(-c2c(F)cc(O)c3c2C(C)(C)CN3c2ccccc2NC(=O)Nc2ccc(OC(F)(F)F)cc2)cnc1F [Example 192, 1-(2-(5-Fluoro-4-(6-fluoro-5-methylpyridin-3-yl)-7-hydroxy-3,3-dimethylindolin-1-yl)phenyl)-3-(4-(trifluoromethoxy)phenyl)urea]
IC50 [1]: 0.26 µM | Ki [2]: 8.8 nM

CC1(C)CN(c2ccccc2NC(=O)Nc2ccc(OC(F)(F)F)cc2)c2c(O)ccc(-c3ccc(F)cc3)c21 [Example 193, 1-(2-(4-(4-Fluorophenyl)-7-hydroxy-3,3-dimethylindolin-1-yl)phenyl)-3-(4-(trifluoromethoxy)phenyl)urea]
IC50 [1]: 0.12 µM | Ki [2]: 6.9 nM

CC1(C)CN(c2ccccc2NC(=O)Nc2ccc(OC(F)(F)F)cc2)c2c(O)cc(F)c(-c3ccc(F)cc3)c21 [Example 194, 1-(2-(5-Fluoro-4-(4-fluorophenyl)-7-hydroxy-3,3-dimethylindolin-1-yl)phenyl)-3-(4-(trifluoromethoxy)phenyl)urea]
IC50 [1]: 0.26 µM | Ki [2]: 6.7 nM

CC1(C)CN(c2ccccc2NC(=O)Nc2ccc(OC(F)(F)F)cc2)c2c(O)ccc(-c3ccccc3)c21 [Example 195, 1-(2-(7-Hydroxy-3,3-dimethyl-4-phenylindolin-1-yl)phenyl)-3-(4-(trifluoromethoxy)phenyl)urea]
IC50 [1]: 0.18 µM | Ki [2]: 9 nM

CC1(C)CN(c2ccccc2NC(=O)Nc2ccc(OC(F)(F)F)cc2)c2c(O)ccc(-c3ccc(C(F)(F)F)cc3)c21 [Example 196, 1-(2-(7-Hydroxy-3,3-dimethyl 4-(4-(trifluoromethyl)phenyl)indolin-1-yl)phenyl)-3-(4-(trifluoromethoxy)phenyl)urea]
IC50 [1]: 0.23 µM | Ki [2]: 8 nM

CC1(C)CN(c2ccccc2NC(=O)Nc2ccc(OC(F)(F)F)cc2)c2c(O)ccc(-c3cc(F)cc(F)c3)c21 [Example 197, 1-(2-(4-(3,5-Difluorophenyl)-7-hydroxy-3,3-dimethylindolin-1-yl)phenyl)-3-(4-(trifluoromethoxy)phenyl)urea]
IC50 [1]: 0.18 µM | Ki [2]: 5.1 nM

CC1(C)CN(c2ccccc2NC(=O)Nc2csc(Cl)n2)c2c(O)ccc(-c3ccc(F)cc3)c21 [Example 198, 1-(2-Chlorothiazol-4-yl)-3-(2-(4-(4-fluorophenyl)-7-hydroxy-3,3-dimethylindolin-1-yl)phenyl)urea]
IC50 [1]: 0.09 µM | Ki [2]: 4.9 nM

CC1(C)CN(c2ccccc2NC(=O)Nc2nc3ccc(Cl)cc3s2)c2c(O)ccc(-c3ccc(F)cc3)c21 [Example 199, 1-(6-Chlorobenzo[d]thiazol-2-yl)-3-(2-(4-(4-fluorophenyl)-7-hydroxy-3,3-dimethylindolin-1-yl)phenyl)urea]
IC50 [1]: 0.18 µM | Ki [2]: 10.1 nM

CC(C)CN1CCCC1c1ccc(NC(=O)Nc2ccccc2N2CC(C)(C)c3c(-c4ccc(F)cc4)ccc(O)c32)cc1 (stereo not drawn) [Example 200, 1-(2-(4-(4-Fluorophenyl)-7-hydroxy-3,3-dimethylindolin-1-yl)phenyl)-3-(4-(1-isobutylpyrrolidin-2-yl)phenyl)urea]
IC50 [1]: 0.05 µM | Ki [2]: 4.6 nM

Cc1nc(NC(=O)Nc2ccccc2N2CC(C)(C)c3c(-c4ccc(F)cc4)ccc(O)c32)cs1 [Example 201, 1-(2-(4-(4-Fluorophenyl)-7-hydroxy-3,3-dimethylindolin-1-yl)phenyl)-3-(2-methylthiazol-4-yl)urea]
IC50 [1]: 0.43 µM | Ki [2]: 5.8 nM

CC(C)(C)CN1CCCC1c1ccc(NC(=O)Nc2ccccc2N2CC(C)(C)c3c(-c4ccc(F)cc4)ccc(O)c32)cc1 (stereo not drawn) [Example 202, 1-(2-(4-(4-Fluorophenyl)-7-hydroxy-3,3-dimethylindolin-1-yl)phenyl)-3-(4-(1-neopentylpyrrolidin-2-yl)phenyl)urea]
IC50 [1]: 0.09 µM | Ki [2]: 5.7 nM

CC1(C)CN(c2ccccc2NC(=O)Nc2ccc(OC(F)(F)F)cc2)c2c(O)ccc(-c3ccc(F)cc3F)c21 [Example 203, 1-(2-(4-(2,4-Difluorophenyl)-7-hydroxy-3,3-dimethylindolin-1-yl)phenyl)-3-(4-(trifluoromethoxy)phenyl)urea]
IC50 [1]: 0.16 µM | Ki [2]: 8 nM

CC1(C)CN(c2ccccc2NC(=O)Nc2ccc(OC(F)(F)F)cc2)c2c(O)ccc(-c3ccc(F)c(F)c3)c21 [Example 204, 1-(2-(4-(3,4-Difluorophenyl)-7-hydroxy-3,3-dimethylindolin-1-yl)phenyl)-3-(4-(trifluoromethoxy)phenyl)urea]
IC50 [1]: 0.4 µM | Ki [2]: 7.7 nM
